{"source": "patent US10800806B2", "about": "“Sterol derivatives and use thereof for treating diseases involving transformed astrocyte cells or for treating malignant haemopathies” (BETA INNOV, priority 2012, dated 2020)", "key": {"[1]": {"tested_on": "human glioblastoma lines (GBM, line U-87 MG)", "experiment": "Anti-GBM activity in vitro on cultures of human U87-MG cells, cell aggregates (CA)", "assay_type": "cell-based", "method": "(§1) Plastic flat-bottomed 96-well culture plates (NUNC, USA) treated for cell culture (Sigma-Aldrich, ref. 114754) are used; 1500 cells are seeded per well in 200 μl of culture medium. At the time of treatment, 100 μl of pure culture medium, 100 μl of culture medium containing ethanol, or liposomes, or 100 μl of culture medium containing the active ingredients are added per well; the final volume of the culture medium, after treatment, is therefore 300 μl for all the wells.\nThe human glioblastoma lines (GBM, line U-87 MG) and their culture medium (Eagle's Minimum Essential Medium or EMEM) were obtained from ATCC (USA, ref. ATCC-HTB-14). Culture of the cells is started and maintained according to the recommendations of the ATCC. These lines are commonly used “in vitro” and “in vivo” for testing anti-GBM potential. The doubling time of these lines is 16 h.\nThe active ingredients are either dissolved in absolute ethanol (AnalaR, NORMAPUR, VWR, France) or in the form of a liposomal solution, such as 10 μl of the stock solutions diluted in 990 μl and then added to the culture wells ([…] medium per well BI-GBM: 300 μl).\n(§2) When the active ingredients are in ethanolic solution, the culture medium contains […] ethanol (v/v).\nBriefly, the compounds to be tested, namely the compounds according to the invention (active ingredients) or 7β-OHCH—C3-ester (a derivative of 7beta-hydroxysterol esterified in position 3 with an oleate group, the synthesis of which is described by Rakotoarivelo et al. (18) and used as control), soya phosphatidylcholine (Sigma) as well as cholesteryl-3-sulphate (Sigma) are taken from their stock solutions prepared from dichloroethane in the case of the active ingredients and the 7β-OHCH—C3-ester, a chloroform:methanol mixture (9:1, v/v) in the case of phosphatidylcholine and chloroform in the case of cholesteryl-3-sulphate. The molar ratios are 1 M/0.1 M/0.25 M for phosphatidylcholine, cholesteryl-3-sulphate and the 7β-OHCH—C3-ester and the active ingredients respectively.\nAfter evaporation, a solution of PBS saline, without Ca^2+ and Mg^2+, pH7.2 (BioRad) is added to the dry compound. The volume of buffer and the mass of the products are adjusted so that 20 or 10 μl of liposomes added to 90 μl of culture medium gives the desired final concentrations. The liposomes are formed by the extrusion technique with Liposofast (Sodexim, SA Muizon, France). The solution is passed through polycarbonate filtration membranes (100 nm) 41 times. The liposomes are sterilized by filtration on […] Millipore membranes.\n(§3) For example, in the case of the cultures in 96-well plates and as a function of the magnification of the microscope used (objectives×10 or ×20, oculars×10), a photograph taken represents a field of view with a diameter equal to 1/5 of the diameter of a well. Therefore the total number of cells in a well is equal to […] the number of cells per photograph. This technique was compared with a standard technique (trypsinization of the cell layer, centrifugation of the cells, suspension of the cells in physiological saline solution and counting with a THOMA cell) in the case of the C6 cells. The results obtained are identical for both methods.\n(§4) The culture medium is withdrawn from each well and 50 μl of Laemmli buffer (0.1 ml of Tris, 0.8 ml of glycerol, 1.6 mL of 10% SDS, 8 ml q.s.f ultrapure water) is added per well.\nThis test makes it possible to detect the cellular respiration, especially the mitochondrial respiration. The stock solution of tetrazolium salt MTT (3-(4,5-dimethylthiazol-2-yl)-2,5-diphenyl tetrazolium bromide, Sigma-Aldrich, USA, ref. M5655) is prepared with 10 mg of MIT/ml of PBS buffer (phosphate-buffered saline, SIGMA, ref. D 1408). This solution is added directly to the culture medium in each well; the final concentration of MTT is 25 μg/ml. The plate is then incubated at 37° C. for at least 1 h. […]"}, "GBMs (rat line C6)": {"tested_on": "GBMs (rat line C6)", "settings": "in vitro; cited from earlier work"}, "[2]": {"tested_on": "immortalized (spontaneously transformed) rat astrocyte lines", "settings": "in vitro; cited from earlier work"}, "Solubility in ethanol": {"experiment": "Solubility in ethanol", "assay_type": "physicochemical", "settings": "ethanolic form"}, "[3]": {"tested_on": "CD133+ stem cells (U87-MG cultures)", "experiment": "Immunolabelling of the CD133+ stem cells with the A/B peroxidase system", "assay_type": "cell-based, human", "settings": "for CD133+ cells, percentage relative to the controls: 80 μM in liposomal form; for destruction of the CD133+ stem cells: liposomal form", "method": "The anti-CD133 (poly, Abnova), anti-GFAP (poly, Sigma), anti-NFL (mono, Santa Cruz) and anti-fibroblast (ERTR7, Santa Cruz) primary antibodies are diluted to 1/100 in the case of the first three antibodies and to 1/50 in the case of the last.\nThe secondary antibodies corresponding to recognition of the primary antibodies are anti-rabbit antibodies coupled to peroxidase (goat, Sigma), anti-mouse coupled to Dylight 488 (sheep, Sigma), anti-mouse coupled to Dylight 488 (sheep, Sigma) and anti-rat coupled to FITC (rabbit, Sigma). The dilutions are 1/4000, 1/1000, 1/4000 and 1/400 respectively.\nThe cells are permeabilized for 5 min with 0.1% Triton X-100 (Sigma) in PBS (Fisher Scientific). The nonspecific sites are blocked with 2% BSA (Sigma) in PBS. Incubations are carried out for 1 h at ambient temperature, 48 h at 4° C., 24 h at 4° C. and 1 h at ambient temperature for the anti-CD133, anti-GFAP, anti-NFL and anti-Fibroblast antibodies respectively. Incubation with the secondary antibodies is carried out for 1 h at ambient temperature. The CD133 positive cells are detected by the DAB/H2O2 system (Sigma), and observed with an optical microscope.\nThe immunolabelling is carried out as described above (section II, A)."}, "C6 cells": {"tested_on": "C6 cells", "experiment": "Anti-GBM activity in vitro on cultures of C6 cells (cell counting, protein assay, MTT test)", "assay_type": "cell-based, rat", "method": "as §1\nThe cultures are incubated in a Sanyo incubator (Japan, model MCO-19AlC-UV) at 37° C. and in an atmosphere with 5% CO2 and saturated in humidity. The cells are observed with an inverted microscope (Nikon Eclipse TS100, Japan) and the photographs are taken with a camera (DIGITAL camera with c-mount; LABOVER, France). The culture hood is a microbiological safety hood MSC (thermo SCIENTIFIC, model HERA SAFE KS12, France).\nThe type C6 cell line was obtained by Benda et al. (16) from rat brain tumours, induced by N-methylnitrosourea. This cell type is used as “in vitro” and “in vivo” model for evaluating anti-GBM potential. The lines originate from the former Strasbourg Neurochemistry Centre (U44 INSERM and UPR 416 CNRS).\nThe culture medium is made up of 70% Minimum Essential Medium (MEM; (Fischer Scientifique, ref. 61100) and 30% Hanks solution (SIGMA, ref. H 9269). The following are added to the culture medium: foetal calf serum (FCS; Fischer Scientifique, ref. 10108165) at a final concentration of 5% (v/v), an antibiotic solution of ciprofloxacin hydrochloride 5 μg/mL (EUROMEDEX, ref. UC5074) and a solution of Fungizone 2.5 μg/mL (INVITROGEN, ref. 15290-026). The doubling time of this cell type is 17 h. • GBM lines of human origin\nThe active ingredients are either dissolved in absolute ethanol (AnalaR, NORMAPUR, VWR, France) or in the form of a liposomal solution, such as 10 μl of the stock solutions diluted in 990 μl and then added to the culture wells (200 μl of culture medium) giving concentrations of 30.0, 15.0, 7.5 and 3.3 μM (final volume of culture medium per well BI-GBM: 300 μl).\nas §2\nA method of cell counting on photographs was used.\nas §3, §4\nIn control wells, 10 μl of a solution of bovine serum albumin range (crystallized BSA, Sigma) is added; the range is from 0 to 20 μg per well. The wells are then supplemented with 40 μl of Laemmli buffer. Finally, 200 μl of solution of BCA reagent is added (Pierce, USA; BCA Protein Assay Kit; ThemoScientific, France).\nThe culture plates are incubated for 30 min at 37° C. The optical density for each well is read and quantified by a plate reader (BioRad, USA, iMark Microplate reader 12222) at 570 nm.\nThis test makes it possible to detect the cellular respiration, especially the mitochondrial respiration. The stock solution of tetrazolium salt MTT (3-(4,5-dimethylthiazol-2-yl)-2,5-diphenyl tetrazolium bromide, Sigma-Aldrich, USA, ref. M5655) is prepared with 10 mg of MIT/ml of PBS buffer (phosphate-buffered saline, SIGMA, ref. D 1408). […]"}, "[4]": {"tested_on": "Neuroblastoma (line SH-SY5Y, ATCC-CRL-2266)", "experiment": "Activity in vitro on human neuroblastomas", "assay_type": "cell-based", "settings": "22 μM once, concentrated liposomal form, 28 days of treatment", "method": "They were obtained from the ATCC collection (Ref. ATCC-CRL-2266). The culture conditions are based on the recommendations in the ATCC information leaflet. • Chronic Myelomonocytic Leukaemia (CMML)\nThe neuroblastomas were treated with empty liposomes (controls) or with liposomes containing molecule 1.b or 2.b, 24 h after starting the culture. The cells are treated once with 22 μM of molecule 1.b or 22 μM of molecule 2.b. The liposomal form is concentrated.\nFor the control cells, the upper left hand photograph marked with the letter A was taken after 7 days of treatment; the lower left hand photograph marked with the letter B was taken after 28 days of treatment.\nFor the cells treated with the concentrated liposomal molecule 1.b, the photograph marked with the letter C (in the middle, at the top) was taken after 7 days of treatment and the photograph marked with the letter D (in the middle, at the bottom) after 28 days of treatment. For the cells treated with the concentrated liposomal molecule 2.b, the upper right hand photograph marked with the letter E was taken after 7 days of treatment."}}}
{"smiles": "CC(C)CCC[C@@H](C)[C@H]1CC[C@H]2[C@@H]3[C@@H](O)C=C4C[C@@H](O)CC[C@]4(C)[C@H]3CC[C@]12C", "note": "[7β-OHCH, 7β-Hydroxycholesterol]", "values": [{"measurement": "death of GBMs", "setting": "[1]; control experiments at the very low levels formed from molecule 2.b", "value": "do not induce any death of GBMs"}, {"measurement": "cytotoxicity", "setting": "GBMs (rat line C6)", "value": "remarkable cytotoxicity"}, {"measurement": "cytotoxicity", "setting": "[2]", "value": "remarkable cytotoxicity"}]}
{"smiles": "CCCCCCCC/C=C\\CCCCCCCC(=O)O[C@H]1CC[C@@]2(C)C(=C[C@H](O)[C@H]3[C@@H]4CC[C@H]([C@H](C)CCCC(C)C)[C@@]4(C)CC[C@@H]32)C1", "note": "[7β-OHCH—C3-ester]", "values": [{"measurement": "action on the GBMs (CA)", "setting": "[1]; ethanolic form", "value": "does not act"}, {"measurement": "anti-tumour activity", "setting": "[1]; ethanolic form", "value": "no anti-tumour activity is observed"}, {"measurement": "efficacy on increasing the dose", "setting": "[1]; liposomal form", "value": "not better, or even decreases"}, {"measurement": "reduction of the level of proteins relative to the untreated control cells", "setting": "[1]; liposomal form", "value": 85, "unit": "%"}, {"measurement": "MTT/cell ratio", "setting": "[1]; liposomal form, 80 μM", "value": "does not vary"}, {"measurement": "action on the GBMs (CA)", "setting": "[1]; liposomal form, 80 μM", "value": "only acts in liposomal form"}, {"measurement": "cell multiplication after replacing the medium with fresh drug-free medium", "setting": "[1]; liposomal form, medium replaced on the 13th day of treatment", "value": "cell multiplication is observed"}, {"measurement": "increase in the MTT test after removal of the drug", "setting": "[1]; medium replaced on the 13th day, two days later", "value": 40, "unit": "%"}, {"measurement": "solubility in ethanol (concentration above which no longer soluble)", "setting": "Solubility in ethanol", "value": "≤ 30", "unit": "µM"}, {"measurement": "CD133+ cells, percentage relative to the controls", "setting": "[3]; 4 days of treatment", "value": 100, "unit": "%"}, {"measurement": "CD133+ cells, percentage relative to the controls", "setting": "[3]; 22 days of treatment", "value": 50, "unit": "%"}, {"measurement": "destruction of the CD133+ stem cells", "setting": "[3]", "value": "This is not the case"}, {"measurement": "destruction of the CD133+ stem cells", "setting": "[3]; listed as 7beta-OHCH-C3-ester", "value": "does not completely destroy the CD 133+"}]}
{"smiles": "CC(C)CCCC(C)C1CCC2C3C(OC(=O)OC(C)(C)C)C=C4CC(OC(=O)C(C)NC(=O)CNC(=O)OCc5ccccc5)CCC4(C)C3CCC12C", "note": "(centres unmarked) [Molecule 1.a, 7-((tert-butoxycarbonyl)oxy)-10,13-dimethyl-17-(6-methylheptan-2-yl)-2,3,4,7,8,9,10,11,12,13,14,15,16,17-tetradecahydro-1H-cyclopenta[a]phenanthren-3-yl 2-(2-(((benzyloxy)carbonyl)amino)acetamido)propanoate]", "values": [{"measurement": "increase of the MTT/cell ratio relative to the control cultures", "setting": "C6 cells; 15 μM, 19 days of treatment", "value": 20, "unit": "%"}, {"measurement": "reduction of the number of cells, the level of proteins and the MTT assay", "setting": "C6 cells; 15 μM, ethanolic form, 14 days of treatment", "value": 30, "unit": "%"}, {"measurement": "reduction of the number of cells, the level of proteins and the MTT assay", "setting": "C6 cells; 15 μM, ethanolic form, 19 days of treatment", "value": "≥ 97", "unit": "%"}, {"measurement": "dose-dependence", "setting": "C6 cells; 7.5 and 3.3 μM, 19 days of treatment", "value": "dose-dependence is also observed"}, {"measurement": "Live residual cells", "setting": "C6 cells; 15 μm, ethanol 3%", "value": 3, "unit": "%"}, {"measurement": "cytotoxicity", "setting": "C6 cells; ethanolic form, after 19 days of treatment", "value": "cytotoxic"}]}
{"smiles": "CC(=O)OC1C=C2CC(OC(=O)C(C)NC(=O)CNC(=O)OCc3ccccc3)CCC2(C)C2CCC3(C)C(C(C)CCCC(C)C)CCC3C12", "note": "(centres unmarked) [Molecule 1.b, 7-acetoxy-10,13-dimethyl-17-(6-methylheptan-2-yl)-2,3,4,7,8,9,10,11,12,13,14,15,16,17-tetradecahydro-1H-cyclopenta[a]phenanthren-3-yl 2-(2-(((benzyloxy)carbonyl)amino)acetamido)propanoate]", "values": [{"measurement": "toxicity to neuroblastoma cells compared to the control cells", "setting": "[4]", "value": "toxic to almost all the cells"}]}
